Test results published in patent US20150299659A1, “MUSCLE CELL PRODUCTION” (Monash University, priority 2014, published 2015).

Legend:
Format in all cases: cell-based, human
[1] = tested on: hPSCs; test: CHIR concentration optimisation for differentiation of hPSCs towards a myogenic phenotype
Experimental: Experiments were performed using all four hPSC lines. When colony size reached >600 μm in diameter and colony density on the plate was approximately 30-40%, we induced differentiation of hPSC by switching the culture medium from mTESR1 to a chemically defined, serum-free medium DMEM-F12 supplemented with insulin-transferrin-selenium (ITS) (all from Sigma-Aldrich, St. Louis, Mo.). […] Culture medium was then replaced by ITS containing 20 ng/ml of FGF2 (Miltenyi Biotech) for a further 14 days. For each experimental control condition, hPSCs differentiation was induced as follows: 1) CHIR only: ITS medium containing 3 μM CHIR from days 0-4, followed by ITS medium only until day of analysis; and 2) FGF2 only: ITS medium only between days 0-4, followed by ITS medium containing 20 ng/ml FGF2 for 14 days. Medium was replaced daily until the day of the analysis. Human PSCs were first exposed to 3 μM CHIR for 4 days, and then the small molecule was replaced with 20 ng/ml of FGF2 for an additional 2 weeks (FIG. 2A). To optimize the differentiation of hPSCs towards a myogenic phenotype, different CHIR concentrations were tested. […] The FGF signaling pathway has been identified to regulate several developmental processes of muscle formation. […]

[2] = tested on: hPSCs; test: Immunocytochemical quantification of muscle cells in unsorted hPSC cultures; details: exposure to CHIR for up to 10 days
Experimental: Experiments were performed using all four hPSC lines. When colony size reached >600 μm in diameter and colony density on the plate was approximately 30-40%, we induced differentiation of hPSC by switching the culture medium from mTESR1 to a chemically defined, serum-free medium DMEM-F12 supplemented with insulin-transferrin-selenium (ITS) (all from Sigma-Aldrich, St. Louis, Mo.). […] Culture medium was then replaced by ITS containing 20 ng/ml of FGF2 (Miltenyi Biotech) for a further 14 days. For each experimental control condition, hPSCs differentiation was induced as follows: 1) CHIR only: ITS medium containing 3 μM CHIR from days 0-4, followed by ITS medium only until day of analysis; and 2) FGF2 only: ITS medium only between days 0-4, followed by ITS medium containing 20 ng/ml FGF2 for 14 days. […]
For cytospin preparations of FACS sorted populations, cells were spun onto glass slides using Cytospin 4 (Shandon, Thermofisher, Waltham, Mass.). […] Images were analyzed with Nikon NIS-Elements 3.2 software. […]
Following withdrawal of FGF2 and a further 17 days of culture in ITS medium alone areas with skeletal muscle cells were scored in treated culture dishes, prior to FACS analysis and identified by immunocytochemistry as PAX3+ and PAX7+ precursors (FIG. 2B) (Relaix et al (2005) Nature 435:948-953) and bipolar skeletal myocytes, positive for myogenin and sarcomeric myosin (MF20) (FIG. 2C).

[3] = tested on: hPSCs; test: FACS quantification of myogenic cell populations from differentiated hPSCs; details: for percentage of CXCR4+/C-MET+ and ACHR+ populations compared to CHIR+FGF2 cultures: single-agent conditions (CHIR only or FGF2 only)
Experimental: Experiments were performed using all four hPSC lines. When colony size reached >600 μm in diameter and colony density on the plate was approximately 30-40%, we induced differentiation of hPSC by switching the culture medium from mTESR1 to a chemically defined, serum-free medium DMEM-F12 supplemented with insulin-transferrin-selenium (ITS) (all from Sigma-Aldrich, St. Louis, Mo.). Starting at day 0 of differentiation, cells were cultured in the presence of 3 μM CHIR 99021 (Miltenyi Biotech, Auburn, Calif.) for 4 days. Culture medium was then replaced by ITS containing 20 ng/ml of FGF2 (Miltenyi Biotech) for a further 14 days. For each experimental control condition, hPSCs differentiation was induced as follows: 1) CHIR only: ITS medium containing 3 μM CHIR from days 0-4, followed by ITS medium only until day of analysis; and 2) FGF2 only: ITS medium only between days 0-4, followed by ITS medium containing 20 ng/ml FGF2 for 14 days. Medium was replaced daily until the day of the analysis.
(§1) Cells were dissociated with 0.05% trypsin or TrypLE Select (Invitrogen, Carlsbad, Calif.) to a single cell suspension and incubated with the appropriate fluorochrome-labelled antibodies (Table 1) at a concentration of 10^7 cells/ml for 30 minutes on ice. Indirect labelling of HNK and ACHR antibodies was done using goat anti-mouse Alexa Fluor 488 and goat anti-mouse PE (both from Molecular Probes, Invitrogen) as secondary antibodies. Labelled cells were sorted through a BD Influx (five lasers) flow sorter (BD Biosciences) according to the excitation requirements of the fluorochromes. Sorted populations were analyzed using FlowJo software (Tree Star Inc., Ashland, Oreg.).
Data were analyzed by two-way analysis of variance (ANOVA) followed by Bonferroni's post-test to calculate p values. Analyses were performed using statistical software (GraphPad Prism 5.04; GraphPad Software, San Diego, Calif.). Probability values <0.05 were considered statistically significant. Error bars in each figure represent the standard error of the mean of three or more individual experiments. For qPCR data, p values were calculated for changes in expression of markers over time compared to day 0. For quantitative analysis of FACS sorting data, the percentage of myogenic cells relative to the total number of cells were obtained for each experimental culture treatment, and p values were calculated for differences between the means of each experimental condition.

[4] = tested on: hESC (HES3); test: RT-PCR and marker analysis of dorsal tissue and endoderm in differentiating hPSCs
Experimental: For cytospin preparations of FACS sorted populations, cells were spun onto glass slides using Cytospin 4 (Shandon, Thermofisher, Waltham, Mass.). Cells were then fixed with 100% cold methanol for 5 minutes and subsequently rehydrated in phosphate buffered solution (PBS) for 15-20 minutes. Cultured cells were fixed with 4% paraformaldehyde for 10 minutes at room temperature and permeabilized with 0.3% Triton X-100 in PBS for 30 minutes. A complete list of primary and fluorochrome-labelled secondary antibodies used in this study is provided in the Supporting Information (Table 1). Incubations with primary and subsequently secondary antibodies were performed in Incubation Buffer (0.1% BSA, 2% FBS, 0.1% Triton X-100 in PBS) for 40 minutes at 37° C. Image acquisition was performed on an inverted Nikon Eclipse Ti epifluorescence microscope with the appropriate filter sets using single channel acquisition on a Nikon Digital sight DS-U2 camera. Images were analyzed with Nikon NIS-Elements 3.2 software. All immunofluorescence images are representative of one individual experiment. […]
Total RNA was extracted using RNeasy Mini kit (Qiagen, Hilden, Germany), and DNAse I treatment (Qiagen) was performed to avoid genomic DNA contamination. […] The inventors optimized the PCR conditions and determined the linear amplification range for each primer by varying annealing temperature and cycle number. […]

[5] = tested on: hESC HES3; test: Immunocytochemistry of cytospin preparations of sorted cells
Experimental: as §1
For cytospin preparations of FACS sorted populations, cells were spun onto glass slides using Cytospin 4 (Shandon, Thermofisher, Waltham, Mass.). Cells were then fixed with 100% cold methanol for 5 minutes and subsequently rehydrated in phosphate buffered solution (PBS) for 15-20 minutes. Cultured cells were fixed with 4% paraformaldehyde for 10 minutes at room temperature and permeabilized with 0.3% Triton X-100 in PBS for 30 minutes. A complete list of primary and fluorochrome-labelled secondary antibodies used in this study is provided in the Supporting Information (Table 1). […] Images were analyzed with Nikon NIS-Elements 3.2 software. […]

Row | Compound | toxicity to differentiating hPSCs ([1]; CHIR concentration >3 μM) | induction of myogenic phenotype ([1]; CHIR doses of <3 μM) | muscle derivation after prolonged exposure [2] | myogenic induction of hPSCs ([3]; CHIR only, 3 μM days 0-4, then ITS medium only) | percentage of CXCR4+/C-MET+ and ACHR+ populations compared to CHIR+FGF2 cultures [3] | expression of dorsal markers SOX10 and LMX1a (RT-PCR) ([4]; day 10 of hESC (HES3) differentiation) | generation of endoderm cells ([4]; lack of specific endodermal markers in the cultures) | cell fate of CXCR4+/C-MET− and CXCR4−/C-MET+ fractions compared to CHIR+FGF2 ([3]; FGF2 only, absence of CHIR treatment) | phenotype of sorted CXCR4+/C-MET− cells [5] | phenotype of sorted CXCR4−/C-MET+ cells [5]
1 | Cc1c[nH]c(-c2cnc(NCCNc3ccc(C#N)cn3)nc2-c2ccc(Cl)cc2Cl)n1 [CHIR, CHIR 99021] | High toxicity | inefficient induction | no muscle cells were identified | sufficient for myogenic induction | Reduction in the percentage | expressed only in CHIR (GSK3β inhibitor) treated cells | not permissive for the generation of endoderm cells | – | – | –
2 | FGF2: fibroblast growth factor, used at 20 ng/ml to expand the muscle precursor compartment | – | – | – | – | almost complete loss | – | – | fundamental shift from a myogenic to a non-myogenic cell fate | complete switch towards SOX1 expression | PAX3+ and PAX7+ cells are not present
